For assay [1], the system named is HCM mice (αMHC^719/+). Description: Echocardiography: maximum left ventricular wall thickness, stereoisomers of pioglitazone (experimental setup C). The note with it: αMHC^719/+ mice, 10 mg/kg/day orally, 6 weeks, vs untreated αMHC^719/+. In kind it is in vivo, mouse. The source says:
This experimental protocol examined the action of the two stereoisomers of a thiazolidinedione (pioglitazone) ((S)- and (R)-stereoisomers) in the same hypertrophic cardiomyopathy mouse model as described for experimental setup A. The experimental setup is thus similar to the experimental setup according to A. The animals were genotyped in their 3rd postnatal week (as also described in accordance with experimental setup A). Between their 6th and 12th postnatal week, all 65 mice were orally administered a daily dose of 30 mg/kg cyclosporin A (CsA) which was added to their pellet diet to accelerate hypertrophic remodeling in the myocardium in the HCM mouse model^56. Between their 6th and 12th postnatal week, (a) 13 WT and 9 MHC^719/+ mice were in addition treated orally with the (R)-stereoisomer of a thiazolidinedione (pioglitazone) (10 mg/kg/day) or (b) 12 WT and 11 αMHC^719/+ mice were in addition treated orally with the (S)-stereoisomer (pioglitazone) (10 mg/kg/day). In their 12th postnatal week, they were subjected to in vivo transthoracic echocardiography. The animals were then euthanized for ex vivo examination (organ removal and histopathology) (see FIG. 11). As shown in experimental setup A, in vivo phenotyping of the left ventricular wall thickness and ventricular function was done by means of transthoracic echocardiography, as described above^40,41,39. Examination by echocardiography was done as follows—specifically: removal of the mice from the cage, weighing and visual assessment of the animals, performance of echocardiography according to standardized, published standard protocols in conscious animals after 30 minutes of observation^39,41,37,40. In order to quantify fibrosis, the removed hearts were fixed in 4% of paraformaldehyde, dehydrated, and placed in paraffin, as described above^37,42,43. […] Semi-quantification of myocardial fibrosis was done independently of one another by two blinded examiners. For this purpose, the percentage of cardiac muscle portions stained blue with Masson's trichrome in relation to the overall stained cardiac muscle was calculated. […]

Assay [2] deals with HCM mice (αMHC^719/+). Kind of assay: Semi-quantitative myocardial fibrosis score on Masson's trichrome sections, stereoisomers of pioglitazone (experimental setup C). In kind it is in vivo, mouse. The note with it: αMHC^719/+ mice, 10 mg/kg/day orally, 6 weeks, vs untreated αMHC^719/+. As to the method: FIG. 13 Determination of myocardial fibrosis using histopathological sections of myocardium. The manifestation of myocardial fibrosis (blue-colored in the Masson's trichrome-stained histological sections) was determined semi-quantitatively by two blinded examiners in each case independently of one another. The scores assigned were 0 to 3:0: no fibrosis, 1: mild fibrosis; 2: moderate fibrosis, 3: severe fibrosis; 0.5: no to mild fibrosis, 1.5: mild to moderate fibrosis; 2.5: moderate to severe fibrosis, 3: severe fibrosis. The animals were genotyped in their 3rd postnatal week (as also described in accordance with experimental setup A). Between their 6th and 12th postnatal week, all 65 mice were orally administered a daily dose of 30 mg/kg cyclosporin A (CsA) which was added to their pellet diet to accelerate hypertrophic remodeling in the myocardium in the HCM mouse model^56. Between their 6th and 12th postnatal week, (a) 13 WT and 9 MHC^719/+ mice were in addition treated orally with the (R)-stereoisomer of a thiazolidinedione (pioglitazone) (10 mg/kg/day) or (b) 12 WT and 11 αMHC^719/+ mice were in addition treated orally with the (S)-stereoisomer (pioglitazone) (10 mg/kg/day). In their 12th postnatal week, they were subjected to in vivo transthoracic echocardiography. The animals were then euthanized for ex vivo examination (organ removal and histopathology) (see FIG. 11). Examination by echocardiography was done as follows—specifically: removal of the mice from the cage, weighing and visual assessment of the animals, performance of echocardiography according to standardized, published standard protocols in conscious animals after 30 minutes of observation^39,41,37,40. In order to quantify fibrosis, the removed hearts were fixed in 4% of paraformaldehyde, dehydrated, and placed in paraffin, as described above^37,42,43. 5-μm sections were stained with Masson's trichrome. Semi-quantification of myocardial fibrosis was done independently of one another by two blinded examiners. For this purpose, the percentage of cardiac muscle portions stained blue with Masson's trichrome in relation to the overall stained cardiac muscle was calculated. Perivascular and intramurine structures, the endocardium, and trabeculas were excluded in the calculation of the percentage of fibrosis. The classification was “no fibrosis,” “mild fibrosis,” “moderate fibrosis,” and “severe fibrosis.”

The subject of assay [3] is PPARγ mRNA. Kind of assay: Relative expression of PPARγ mRNA in the left ventricular myocardium (RtPCR). The class given is in vivo, mouse. The note with it: αMHC^719/+ mice, oral rosiglitazone, 6 weeks, compared to wild-type level. As to the method:
FIG. 7 Relative expression of PPARγ mRNA in the left ventricular myocardium of untreated HCM mice and HCM mice (αMHC^719/+) treated with N-acetylcysteine (NAC) or rosiglitazone (Rosi) compared to wild-type mice (WT) after 6 weeks; ***: p<0.001.
RNA isolation was carried out by means of the peqGOLD Total RNA Kit (Peqlab) from the left ventricular myocardium according to the manufacturer's instructions. First-strand cDNA was synthesized from 500 ng of total RNA, which is reverse-transcribed (Reverse Transcription Kit, Invitrogen) with random hexamers (TIB Molbiol). RtPCR analysis is carried out with Perfecta SYBR Green fast Mix (VWR, Germany) in the QIAGEN Rotor-Gene Q (Corbett Rotor-Gene 6000). Quantification is done by means of […] calculation and randomization test^49,50.

Assay [4] relates to αMHC^719/+ HCM mouse model. Description: Preclinical αMHC^719/+ HCM mouse model, overall summary of results. In kind it is in vivo. The note with it: oral administration in the αMHC^719/+ HCM mouse model. As for the experimental part:
The examinations were carried out on an established HCM mouse model, in which an arginine-to-tryptophan mutation at position 719 of the heavy chain of the cardiac mouse alpha-myosin gene was effected by homologous recombination (referred to as αMHC^719/+)^38. Such genetically modified mice increasingly develop the typical pathognomonic disease characteristics of hypertrophic cardiomyopathy such as myocardial hypertrophy and fibrosis with increasing age. The phenotype of this genetically generated HCM mouse model thus simulates the phenotype of HCM patients affected^36,37,38. The manifestation of the disease can be accelerated by subcutaneous administration of the calcineurin inhibitor cyclosporin A (CsA)^9.
Between their 6th and 12th postnatal week, all mice were injected subcutaneously with cyclosporin A (CsA) to accelerate hypertrophic remodeling in the myocardium in the HCM mouse model^9. Half of the mice were treated with the PPARγ agonists rosiglitazone and pioglitazone from the group of thiazolidinediones between their 6th and 12th postnatal week. In their 12th postnatal week, they were subjected to in vivo transthoracic echocardiography. The animals were then euthanized for ex vivo examination (organ removal, histopathology, and determination of radical oxygen species, of mRNA and protein expression in the tissue) (see FIG. 10).D

The mark [5] stands for this setting: (R)-Pio p<0.001, (S)-Pio p=0.072.
[6] abbreviates: (R)-Pio p=0.01, (S)-Pio p=0.916.

Each structure is given as a SMILES string. “Also recorded” adds a separate entry of the source.

Regarding `CCc1ccc(CCOc2ccc(C[C@H]3SC(=O)NC3=O)cc2)nc1` (single isomer, unassigned) [(R)-stereoisomer of pioglitazone], the “development of myocardial hypertrophy (maximum thickness of the wall of the left ventricle)” value in assay [1] (setting [5]) was “significantly inhibited”; in assay [1] ((R)-Pio p<0.001, (S)-Pio p=0.072, listed as (R)-stereoisomer of a thiazolidinedione), “significantly lessened”. In addition, the “development of myocardial fibrosis (semi-quantitative score 0 to 3)” value in assay [2] (setting [6]) was “significantly inhibited”; in assay [2] ((R)-Pio p=0.01, (S)-Pio p=0.916, listed as (R)-stereoisomer of a thiazolidinedione), “significantly lessened”.
In the case of `CN(CCOc1ccc(CC2SC(=O)NC2=O)cc1)c1ccccn1` (racemic) [rosiglitazone, (RS)-5-({4-[2-(methyl-2-pyridinylamino)ethoxy]phenyl}methyl)-2,4-thiazolidinedione], the “myocardial mRNA expression of PPARγ” value in assay [3] was “increases the myocardial mRNA expression of PPARγ again almost completely to wild-type level”. Moreover, the “changes in biophysical properties in the heart muscle cell and onset of myocardial hypertrophy and fibrosis” value in assay [4] is reported as “largely prevents”.
For `CCc1ccc(CCOc2ccc(C[C@@H]3SC(=O)NC3=O)cc2)nc1` (single isomer, unassigned) [(S)-stereoisomer of pioglitazone], the “development of myocardial hypertrophy (maximum thickness of the wall of the left ventricle)” value in assay [1] (setting [5]) was “tends to result in lessened hypertrophy; also recorded: less pronounced”. In addition, the “development of myocardial fibrosis (semi-quantitative score 0 to 3)” value was “not in a reduction of myocardial fibrosis” in assay [2] (setting [6]) and “cannot be seen” in assay [2] ((R)-Pio p=0.01, (S)-Pio p=0.916, listed as S-stereoisomer of pioglitazone).

The values are drawn from patent publication US20240180887A1, “USE OF PPAR(gamma) AGONISTS OR MPC INHIBITORS FOR TREATING PRIMARY, INNATE DISEASES OF THE CARDIAC MUSCLE (CARDIOMYOPATHIES)” (PREVENTAGE THERAPEUTICS GMBH, priority 2021, published 2024).
